Biological target: T1, hTMPK (Homo sapiens, UniProt P23919)
T1 sequence (P23919 1-212): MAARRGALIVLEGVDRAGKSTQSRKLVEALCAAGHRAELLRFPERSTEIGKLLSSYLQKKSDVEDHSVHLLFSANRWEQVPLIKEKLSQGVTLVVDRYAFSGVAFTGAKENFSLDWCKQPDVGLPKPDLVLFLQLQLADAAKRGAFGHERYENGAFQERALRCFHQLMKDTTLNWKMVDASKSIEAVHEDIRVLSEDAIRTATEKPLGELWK
Test: In vitro inhibitory activity against human TMPK at 2 μM
Assay type: biochemical
Settings: test compounds at 2 μM concentration
Procedure: (§1) The TMPK reaction was started by adding purified hTMPK in 50 μl of TMPK assay buffer (100 mM Tris-HCl, pH 7.5, 100 mM KCl, 10 mM MgCl2, 50 μM ATP and 100 μM dTMP) in 96 wells plate at 25° C. for 10 min and terminated by adding 200 μl of DTNB (100 μM), followed by transferring 10 μl of reaction solution to a white 96-wellplate containing 90 μl of luciferase assay buffer (50 mM Glycine, 0.5 mM EDTA and 5 mM EDTA, pH 7.0, 0.1 μg of luciferase, 50 μM luciferin and 0.1% BSA). The luminescence was measured with a luminescence counter (Packard).
(§2) All reactions were performed in 96-well plates in an assay volume of 100 μl. The activity of hTMPK was measured at 25° C. using a modified NADH coupled colorimetric assay as described (Agarwal et al., 1978; Miyata et al., 2003; Ostermann et al., 2003), in which purified hTMPK was added to the buffer containing 100 mM Tris-HCl, pH 7.5, 100 mM KCl, 10 mM MgCl2, 0.5 mM phosphoenol pyruvate, 0.25 mM NADH, 5 units of lactate dehydrogenase, 4 units of pyruvate kinase, 1 mM ATP, and 200 μM dTMP. The change of NADH was measured by reading the absorbance at 340 nm. One unit of TMPK activity is defined as the conversion of […] of TMP to TDP per minute.
The in vitro inhibitory activities of test compounds (at 2 μM concentration) against human TMPK are shown in Table 3 and compared with that of YMU1 and YMU2.

Row | Compound | inhibition at 2 µM [%]
1 | O=C(Cn1sc2ccccc2c1=O)N1CCN(C(=O)Cn2sc3ccccc3c2=O)CC1 [I-e-8, 1,4-Bis[(3-oxo-benzo[d]isothiazol-2-yl)acetyl]piperazine] | 89 ± 6
2 | CCCCNC(=O)NCC(=O)N1CCN(C(=O)Cn2sc3ccccc3c2=O)CC1 [I-e-7, Butyl-3-(2-oxo-2-(4-(2-(3-oxobenzo[d]isothiazol-2(3H)-yl)acetyl)piperazin-1-yl)ethyl)urea] | 50 ± 5
3 | Cc1cc(C)c2c(=O)n(CC(=O)N3CCN(C(=O)CNC(=O)Nc4ccccc4)CC3)sc2n1 [I-b-2, 1-(2-(4-(2-(4,6-Dimethyl-3-oxoisothiazolo[5,4-b]pyridin-2(3H)-yl)acetyl)piperazin-1-yl)-2-oxoethyl)-3-phenylurea] | 32 ± 2
4 | CCCCCCCCc1cn(-c2ccc3c(=O)n(CC(=O)N4CCN(C(=O)OC(C)(C)C)CC4)sc3c2)nn1 [I-d-18, Tert-butyl 4-(2-(6-(4-octyl-1H-1,2,3-triazol-1-yl)-3-oxobenzo[d]isothiazol-2(3H)-yl)acetyl)piperazine-1-carboxylate] | 78 ± 7
5 | O=C(Cn1sc2cc(Br)ccc2c1=O)N1CCN(C(=O)Oc2ccc([N+](=O)[O-])cc2)CC1 [I-d-11, 4-Nitrophenyl 4-(2-(6-bromo-3-oxobenzo[d]isothiazol-2(3H)-yl)acetyl)piperazine-1-carboxylate] | 86 ± 6
6 | O=C(Cn1sc2cc(Br)ccc2c1=O)N1CCNCC1 [I-f-2, 6-Bromo-2-(2-oxo-2-(piperazin-1-yl)ethyl)benzo[d]isothiazol-3(2H)-one] | 38 ± 14
7 | O=C(Cn1sc2ccccc2c1=O)N1CCN(C(=O)OCc2ccccc2)CC1 [I-d-3, Benzyl 4-(2-(3-oxobenzo[d]isothiazol-2(3H)-yl)acetyl)piperazine-1-carboxylate] | 54 ± 1
8 | O=C(NCC(=O)N1CCN(C(=O)Cn2sc3ncccc3c2=O)CC1)Nc1ccccc1 [I-b-1, 1-(2-Oxo-2-(4-(2-(3-oxoisothiazolo[5,4-b]pyridin-2(3H)-yl)acetyl)piperazin-1-yl)ethyl)-3-phenylurea] | 54 ± 7
9 | O=C(Cn1sc2ncccc2c1=O)N1CCNCC1 [I-c-1, 2-(2-Oxo-2-(piperazin-1-yl)ethyl)isothiazolo[5,4-b]pyridin-3(2H)-one] | 75 ± 11
10 | Cc1cc(C)c2c(=O)n(CC(=O)N3CCN(C(=O)Cn4sc5nc(C)cc(C)c5c4=O)CC3)sc2n1 [I-b-4, 1,4-Bis[(3-oxo-4,6-dimethylisothiazolo[5,4-b]pyridin-2-yl)acetyl]piperazine] | 32 ± 2
11 | CCOC(=O)N1CCN(C(=O)Cn2sc3ccccc3c2=O)CC1 [I-d-1, Ethyl 4-(2-(3-oxobenzo[d]isothiazol-2(3H)-yl)acetyl)piperazine-1-carboxylate] | 79 ± 5
12 | COc1ccc(NC(=O)NCC(=O)N2CCN(C(=O)Cn3sc4ccccc4c3=O)CC2)cc1 [I-e-6, 1-(4-Methoxyphenyl)-3-(2-oxo-2-(4-(2-(3-oxobenzo[d]isothiazol-2(3H)-yl)acetyl)piperazin-1-yl)ethyl)urea] | 55 ± 7
13 | CC(C)(C)OC(=O)N1CCN(C(=O)Cn2sc3cc(O[Si](C)(C)C(C)(C)C)ccc3c2=O)CC1 [I-d-17, Tert-butyl 4-(2-(6-((tert-butyldimethylsilyl)oxy)-3-oxobenzo[d]isothiazol-2(3H)-yl)-acetyl)piperazine-1-carboxylate] | 80 ± 4
14 | O=C(Cn1sc2ccccc2c1=O)N1CCNCC1 [I-f-1, 2-(2-Oxo-2-(piperazin-1-yl)ethyl)benzo[d]isothiazol-3(2H)-one] | 34 ± 2
15 | O=C(CI)N1CCN(C(=O)Cn2sc3ccccc3c2=O)CC1 [I-e-1, 2-[2-(4-(2-Iodoacetyl)piperazin-1-yl)-2-oxoethyl]benzo[d]isothiazol-3(2H)-one] | 31 ± 5
16 | O=C(Cn1sc2ncccc2c1=O)N1CCN(C(=O)Oc2ccc([N+](=O)[O-])cc2)CC1 [I-a-2, 4-Nitrophenyl 4-(2-(3-oxoisothiazolo[5,4-b]pyridin-2(3H)-yl)acetyl)piperazine-1-carboxylate] | 80 ± 10
17 | O=C(CN=C=S)N1CCN(C(=O)Cn2sc3ccccc3c2=O)CC1 [I-e-4, 2-(2-(4-(2-Isothiocyanatoacetyl)piperazin-1-yl)-2-oxoethyl)benzo[d]isothiazol-3(2H)-one] | 63 ± 10

Further lines, results first:

Row | inhibition at 2 µM [%] | Compound
18 | 84 ± 1 | CC(C)(C)OC(=O)N1CCN(C(=O)Cn2sc3cc(C(F)(F)F)ccc3c2=O)CC1 [I-d-12, Tert-butyl4-(2-(3-oxo-6-(trifluoromethyl)benzo[d]isothiazol-2(3H)-yl)acetyl)-piperazine-1-carboxylate]
19 | 51 ± 9 | COc1ccc2c(=O)n(CC(=O)N3CCN(C(=O)OC(C)(C)C)CC3)sc2c1 [I-d-15, Tert-butyl 4-(2-(6-methoxy-3-oxobenzo[d]isothiazol-2(3H)-yl)acetyl)piperazine-1-carboxylate]
20 | 56 ± 4 | CC(C)(C)OC(=O)N1CCN(C(=O)Cn2sc3cccc(F)c3c2=O)CC1 [I-d-5, Tert-butyl 4-(2-(4-fluoro-3-oxobenzo[d]isothiazol-2(3H)-yl)acetyl)piperazine-1-carboxylate]
21 | 66 ± 5 | CC(C)(C)OC(=O)N1CCN(C(=O)Cn2sc3cc(N=[N+]=[N-])ccc3c2=O)CC1 [I-d-14, tert-butyl 4-(2-(6-azido-3-oxobenzo[d]isothiazol-2(3H)-yl)acetyl)piperazine-1-carboxylate]
22 | 6 ± 5 | Cc1cc(N)nc2sn(CC(=O)N3CCNCC3)c(=O)c12 [I-c-3, 6-Amino-4-methyl-2-[2-oxo-2-(piperazin-1-yl)ethyl]isothiazolo[5,4-b]pyridin-3(2H)-one]
23 | 10 ± 7 | Cc1cc(N)nc2sn(CC(=O)N3CCN(C(=O)Oc4ccc([N+](=O)[O-])cc4)CC3)c(=O)c12 [I-a-4, 4-Nitrophenyl 4-[2-(6-amino-4-methyl-3-oxoisothiazolo[5,4-b]pyridin-2(3H)-yl)acetyl]piperazine-1-carboxylate]
24 | 100 ± 9 | CC(C)(C)OC(=O)N1CCN(C(=O)Cn2sc3ccccc3c2=O)CC1 [I-d-2, Tert-butyl 4-(2-(3-oxobenzo[d]isothiazol-2(3H)-yl)acetyl)piperazine-1-carboxylate]
25 | 56 | CC(C)(C)OC(=O)N1CCN(C(=O)Cn2sc3cc(Br)ccc3c2=O)CC1 [I-d-10, Tert-butyl 4-(2-(6-bromo-3-oxobenzo[d]isothiazol-2(3H)-yl)acetyl)piperazine-1-carboxylate]
26 | 46 ± 2 | Cc1cc(C)c2c(=O)n(CC(=O)N3CCN(C(=O)OC(C)(C)C)CC3)sc2n1 [YMU2, reference compound]
27 | 46 ± 2 | Cc1cc(C)c2c(=O)n(CC(=O)N3CCNCC3)sc2n1 [I-c-2, 4,6-Dimethyl-2-(2-oxo-2-(piperazin-1-yl)ethyl)isothiazolo[5,4-b]pyridin-3(2H)-one]
28 | 16 ± 5 | Cc1cc(N)nc2sn(CC(=O)N3CCN(C(=O)OC(C)(C)C)CC3)c(=O)c12 [I-a-3, Tert-butyl 4-[(6-amino-4-methyl-3-oxoisothiazolo[5,4-b]pyridin-2(3H)-2-yl)acetyl]piperazine-1-carboxylate]
29 | 25 ± 3 | CC(C)(C)OC(=O)N1CCN(C(=O)Cn2sc3c(F)cccc3c2=O)CC1 [I-d-8, Tert-butyl 4-(2-(7-fluoro-3-oxobenzo[d]isothiazol-2(3H)-yl)acetyl)piperazine-1-carboxylate]
30 | 39 ± 14 | CC(C)(C)OC(=O)N1CCN(C(=O)Cn2sc3cc(N)ccc3c2=O)CC1 [I-d-13, Tert-butyl 4-(2-(6-amino-3-oxobenzo[d]isothiazol-2(3H)-yl)acetyl)piperazine-1-carboxylate]
31 | 55 ± 7 | CC(C)(C)OC(=O)N1CCN(C(=O)Cn2sc3cc(Cl)ccc3c2=O)CC1 [I-d-9, Tert-butyl 4-(2-(6-chloro-3-oxobenzo[d]isothiazol-2(3H)-yl)acetyl)piperazine-1-carboxylate]
32 | 22 ± 12 | CC(C)(C)OC(=O)N1CCN(C(=O)Cn2sc3cc(O)ccc3c2=O)CC1 [I-d-16, Tert-butyl 4-(2-(6-hydroxy-3-oxobenzo[d]isothiazol-2(3H)-yl)acetyl)piperazine-1-carboxylate]
33 | 77 ± 4 | CC(C)(C)OC(=O)N1CCN(C(=O)Cn2sc3ncccc3c2=O)CC1 [I-a-1, Tert-butyl 4-(2-(3-oxoisothiazolo[5,4-b]pyridin-2(3H)-yl)acetyl)piperazine-1-carboxylate]
34 | 29 ± 3 | Cc1cc(C)c2c(=O)n(CC(=O)N3CCN(C(=O)CI)CC3)sc2n1 [I-b-3, 4,6-Dimethyl-2-[2-(4-(2-iodoacetyl)piperazin-1-yl)-2-oxoethyl]-isothiazolo[5,4-b]pyridin-3(2H)-one]

Biological target: T1, hTMPK
Test: IC50 determination by enzymatic assay
Assay type: biochemical
Settings: not given
Procedure: as §1, §2
In one embodiment, the IC50 values were determined by enzymatic assay.

Row | IC50 [µM] | Compound
35 | 0.45 | O=C(Cn1sc2ccccc2c1=O)N1CCN(C(=O)Cn2sc3ccccc3c2=O)CC1 [I-e-8, 1,4-Bis[(3-oxo-benzo[d]isothiazol-2-yl)acetyl]piperazine]
36 | 1.81 ± 0.28 | O=C(NCC(=O)N1CCN(C(=O)Cn2sc3ncccc3c2=O)CC1)Nc1ccccc1 [I-b-1, 1-(2-Oxo-2-(4-(2-(3-oxoisothiazolo[5,4-b]pyridin-2(3H)-yl)acetyl)piperazin-1-yl)ethyl)-3-phenylurea]
37 | 0.8 | Cc1cc(C)c2c(=O)n(CC(=O)N3CCN(C(=O)Cn4sc5nc(C)cc(C)c5c4=O)CC3)sc2n1 [I-b-4, 1,4-Bis[(3-oxo-4,6-dimethylisothiazolo[5,4-b]pyridin-2-yl)acetyl]piperazine]

Reference: US9662328B2, “Targeting human thymidylate kinase induces DNA repair toxicity in malignant tumor cells” (NATIONAL YANG-MING UNIVERSITY, priority 2010, dated 2017)
